The text below walks through data of patent US9000154B2, “Rho kinase inhibitors” (Boehringer Ingelheim International GmbH, priority 2010, dated 2015).

Each structure is given as a SMILES string.

Experiment [1] concerns the target T1, ROCKII (1-543) (Homo sapiens, UniProt O75116). Nature of the experiment: IMAP Assay (fluorescence polarization, FAM S6 peptide). It is filed as biochemical. Also noted: 3 nM ROCKII (1-543) diluted in kinase reaction buffer. The note with it: IMAP FP, 1 nM ROCKII (1-543), 100 μM ATP; read-out: Assay 2 IC50. On the procedure: This assay is performed using FAM S6 substrate peptide (Catalogue #R7184) and IMAP FP Screening Express Kit detection reagents from Molecular Devices (Sunnyvale, Calif.) in IMAP kinase reaction buffer (Tris-HCl, pH 7.2, 10 mM MgCl2, 0.05% NaN3, 0.1% phosphate-free BSA) containing 1 mM DTT. Test compounds dissolved in neat DMSO at 0.3 mg/mL are serially diluted 1 to 3 for concentration response in 100% DMSO. The DMSO serial dilutions are further diluted 33.33-fold in kinase reaction buffer, and 10 μL of this buffer dilution is transferred to Corning black 96-well half area NBS plates for a final top concentration of 3 μg/mL in 1% DMSO. 10 μL aliquot of 3 nM ROCKII (1-543) diluted in kinase reaction buffer is added to each assay well for a final concentration of 1 nM kinase. 10 μL of a mixture of 600 nM FAM S6 peptide and 300 μM ATP diluted in kinase reaction buffer is added to each well for a final concentration of 200 nM peptide and 100 μM ATP. The kinase reaction mixture is incubated for 60 minutes at room temperature. Positive controls are reaction mixtures containing no test compound and negative controls (blanks) are reaction mixtures containing no kinase. The kinase reaction is stopped by addition of 60 μL IMAP progressive binding reagent (Catalog #R7284) diluted 400-fold in 1× Binding buffer A. After 30 min of incubation at room temperature, the plates are read for fluorescence polarization on Analyst Plate Reader using Ex 485 nm, Em 530 nm, and FL 505 dichroic mirror. The mP signals are converted to percent of control (POC) values using the formula: POC=100*(Signal−BCTRL)÷(PCTRL−BCTRL)
Where Signal is the test well signal, BCTRL is the average of background (negative control) well signals on the plate and PCTRL is the average of positive control well signals on the plate. For the concentration-responsive compounds, POC as a function of test compound concentration is fitted to a 4-parameter logistic equation of the form: Y=A+(B−A)/[1+(x/C)D]
Where A, B, C, and D are fitted parameters (parameter B is fixed at zero POC), and x and y are the independent and dependent variables, respectively. The IC50 is determined as the inflection point parameter, C.
Target sequence in this assay (O75116 1-543, species assumed): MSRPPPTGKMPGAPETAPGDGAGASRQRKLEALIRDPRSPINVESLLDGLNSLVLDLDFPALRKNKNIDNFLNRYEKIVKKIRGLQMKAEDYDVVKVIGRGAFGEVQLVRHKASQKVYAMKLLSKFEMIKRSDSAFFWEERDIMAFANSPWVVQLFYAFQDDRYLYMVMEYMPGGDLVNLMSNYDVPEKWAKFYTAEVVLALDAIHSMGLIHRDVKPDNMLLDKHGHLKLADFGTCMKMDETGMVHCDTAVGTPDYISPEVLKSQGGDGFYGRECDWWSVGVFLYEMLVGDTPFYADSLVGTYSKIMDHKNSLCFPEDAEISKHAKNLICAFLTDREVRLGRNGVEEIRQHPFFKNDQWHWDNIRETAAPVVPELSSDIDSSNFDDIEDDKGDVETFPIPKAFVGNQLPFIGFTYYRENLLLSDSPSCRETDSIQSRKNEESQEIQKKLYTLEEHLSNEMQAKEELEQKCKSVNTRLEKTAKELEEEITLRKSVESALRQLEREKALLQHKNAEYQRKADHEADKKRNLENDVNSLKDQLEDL
Background: Polarisation of emitted light reports the rotation of a fluorescent probe.

For experiment [2], the target named is T1, ROCKII (1-543). The experiment can be described thus: Luciferin-Luciferase Assay (PKLight ATP detection). The class given is biochemical. Set-up: ROCKII (1-543) (62,408 Da) was diluted in assay buffer. The note with it: 7.5 nM ROCKII (1-543), 750 nM ATP. On the procedure:
1. Luciferin-Luciferase Assay
The activity of ROCKII (1-543) kinase was measured utilizing Cambrex PKLight ATP Detection Reagent, a homogeneous assay technology using luciferin-luciferase to quantify residual ATP. The assay was performed in 384-well low-volume, white, non-binding surface microtiter plates (Corning). The assay buffer was 25 mM HEPES, pH 7.5, 10 mM MgCl2, 50 mM KCl, 0.2% BSA, 0.01% CHAPS, 100 μM Na3VO4 and 0.5 mM DTT. Test compounds, dissolved in neat DMSO at 500 μg/mL, were serially diluted for dose response for a final starting concentration of 3 μg/mL in 1% DMSO of assay buffer. ROCKII (1-543) (62,408 Da) was diluted in assay buffer to a final concentration of 7.5 nM in a total volume of 15 μL. Positive controls were reaction mixtures containing no test compound; negative controls (blanks) were reaction mixtures containing no kinase. After 15 minutes of pre-incubation of the test compounds with the kinase, a mixture of ATP and peptide substrate (AKRRRLSSLRA) in assay buffer was added to each well for a final concentration of 750 nM ATP and 500 nM peptide, respectively. After 90 minutes of incubation of the kinase reaction at 28° C. temperature, 10 μL of PKLight ATP Detection Reagent (warmed to room temperature previously) was added to each well. The assay plate was incubated at room temperature for additional 15 minutes and then read on an Analyst in luminescence mode. Dose-response experiments for each of the test compounds were conducted in quadruplet. IC50 values of test compounds represent 50% response of the positive control from the dose-response curve.
Target sequence in this assay (O75116 1-543): as the sequence (O75116 1-543, species assumed) above

Experiment [3] concerns spontaneously hypertensive rat, renal hypertensive rat and deoxycortisone acetate salt hypertensive rat models. The note with it: cited from earlier work.
Experiment [4] relates to neointimal formation in rats. The conditions noted are these: balloon injury model; cited from earlier work.
A further experiment concerns Dahl salt-sensitive rats. The conditions noted are these: congestive heart failure; cited from earlier work.
Experiment [5] deals with IL-1 beta-induced coronary stenosis. The conditions noted are these: porcine, long term treatment; cited from earlier work.
Another experiment concerns rat stroke model. The conditions noted are these: cited from earlier work.

As usually defined, the IC50 is the point on the concentration scale where inhibition reaches its midpoint. Take `C[C@@H]1CN(C2CCc3nc(NC(=O)c4cccc(Cn5cc(-c6ccc(C#N)cc6)cn5)c4)sc3C2)C[C@H](C)O1` (stereo partly drawn) [Compound 26, 3-[4-(4-Cyano-phenyl)-pyrazol-1-ylmethyl]-N-[6-((2R,6S)-2,6-dimethyl-morpholin-4-yl)-4,5,6,7-tetrahydro-benzothiazol-2-yl]-benzamide]: the IC50 on ROCKII (1-543) [1] was determined as 3.9 nM; against ROCKII (1-543) [2] it was 4.3 nM.

On to `C[C@@H]1CN(C2CCc3nc(NC(=O)c4cccc(Cn5cc(-c6ccc(C#N)cc6)nn5)c4)sc3C2)C[C@H](C)O1` (stereo partly drawn) [Compound 27, 3-[4-(4-Cyano-phenyl)-[1,2,3]triazol-1-ylmethyl]-N-[6-((2S,6R)-2,6-dimethyl-morpholin-4-yl)-4,5,6,7-tetrahydro-benzothiazol-2-yl]-benzamide], for which the results for the IC50 on ROCKII (1-543) [1] and against ROCKII (1-543) [2] were 3.9 nM and 3.1 nM, respectively.

Regarding `CN(CCC(F)(F)F)[C@H]1CCc2nc(NC(=O)c3cccc(Cn4cc(-c5ccc(C#N)cc5)cn4)c3)sc2C1` [Compound 30, 3-[4-(4-Cyano-phenyl)-pyrazol-1-ylmethyl]-N-{(S)-6-[methyl-(3,3,3-trifluoro-propyl)-amino]-4,5,6,7-tetrahydro-benzothiazol-2-yl}-benzamide], the values for the IC50 at ROCKII (1-543) [1] and at ROCKII (1-543) [2] were 7.3 nM and 2.1 nM, respectively.

For `CN(CCC#N)[C@H]1CCc2nc(NC(=O)c3cccc(Cn4cc(-c5ccc(C#N)cc5)nn4)c3)sc2C1` [Compound 32, N-{(S)-6-[(2-Cyano-ethyl)-methyl-amino]-4,5,6,7-tetrahydro-benzothiazol-2-yl}-3-[4-(4-cyano-phenyl)-[1,2,3]triazol-1-ylmethyl]-benzamide], the values for the IC50 on ROCKII (1-543) [1] and at ROCKII (1-543) [2] were 2 nM and 2.9 nM, respectively.

Consider `N#Cc1ccc(-c2nnc(Cc3cccc(C(=O)Nc4nc5c(s4)C[C@@H](N4CCOCC4)CC5)c3)o2)cc1` [Compound 40, 3-[5-(4-Cyano-phenyl)-1,3,4-oxadiazol-2-ylmethyl]-N—((S)-6-morpholin-4-yl-4,5,6,7-tetrahydro-benzothiazol-2-yl)-benzamide], for which the IC50 on ROCKII (1-543) [1] was found to be 12 nM; against ROCKII (1-543) [2] it was 3.2 nM.

For the compound `N#Cc1ccc(-c2cn(Cc3cccc(C(=O)Nc4nc5c(s4)CC(N4CCC(F)(F)CC4)CC5)c3)nn2)cc1` (stereo not shown) [Compound 41, 3-[4-(4-Cyano-phenyl)-1,2,3-triazol-1-ylmethyl]-N-[6-(4,4-difluoro-piperidin-1-yl)-4,5,6,7-tetrahydro-benzothiazol-2-yl]-benzamide], the IC50 was 5.8 nM on ROCKII (1-543) [1] and 7.1 nM at ROCKII (1-543) [2].

On to `N#Cc1ccc(-c2cn(Cc3cccc(C(=O)Nc4nc5c(s4)CC(N4CCC(F)CC4)CC5)c3)nn2)cc1` (stereo not shown) [Compound 42, 3-[4-(4-Cyano-phenyl)-1,2,3-triazol-1-ylmethyl]-N-[6-(4-fluoro-piperidin-1-yl)-4,5,6,7-tetrahydro-benzothiazol-2-yl]-benzamide], for which the results for the IC50 on ROCKII (1-543) [1] and against ROCKII (1-543) [2] were 1.1 nM and 3.4 nM, respectively.

On to `N#Cc1ccc(-c2cn(Cc3cccc(C(=O)Nc4nc5c(s4)C[C@@H](N4CCCCC4)CC5)c3)nn2)cc1` [Compound 44, 3-[4-(4-Cyano-phenyl)-1,2,3-triazol-1-ylmethyl]-N—((S)-6-piperidin-1-yl-4,5,6,7-tetrahydro-benzothiazol-2-yl)-benzamide], for which the IC50 on ROCKII (1-543) [1] was determined as 0.53 nM; at ROCKII (1-543) [2], 2.4 nM.

Take `COCCN[C@H]1CCc2nc(NC(=O)c3cccc(Cn4cc(-c5ccc(C#N)cc5)cn4)c3)sc2C1` [Compound 45, 3-[4-(4-Cyano-phenyl)-pyrazol-1-ylmethyl]-N—[(S)-6-(2-methoxy-ethylamino)-4,5,6,7-tetrahydro-benzothiazol-2-yl]-benzamide]: the IC50 was 0.35 nM on ROCKII (1-543) [1] and 2.1 nM against ROCKII (1-543) [2].

On to `COCCN(C)[C@H]1CCc2nc(NC(=O)c3cccc(Cn4cc(-c5ccc(C#N)cc5)nn4)c3)sc2C1` [Compound 49, 3-[4-(4-Cyano-phenyl)-[1,2,3]triazol-1-ylmethyl]-N-{(S)-6-[(2-methoxy-ethyl)-methyl-amino]-4,5,6,7-tetrahydro-benzothiazol-2-yl}-benzamide], for which the IC50 on ROCKII (1-543) [1] was 0.73 nM; against ROCKII (1-543) [2], 1.7 nM.

Regarding `COCCN(CCOC)[C@H]1CCc2nc(NC(=O)c3cccc(Cn4cc(-c5ccc(C#N)cc5)nn4)c3)sc2C1` [Compound 55, N-{(S)-6-[Bis-(2-methoxy-ethyl)-amino]-4,5,6,7-tetrahydro-benzothiazol-2-yl}-3-[4-(4-cyano-phenyl)-[1,2,3]triazol-1-ylmethyl]-benzamide], the IC50 at ROCKII (1-543) [1] came to 6.5 nM; against ROCKII (1-543) [2], 2.3 nM.

As for `N#Cc1ccc(-c2nnc(Cc3cccc(C(=O)Nc4nc5c(s4)C[C@@H](N4CCOCC4)CC5)c3)s2)cc1` [Compound 56, 3-[5-(4-Cyano-phenyl)-1,3,4-thiadiazol-2-ylmethyl]-N—((S)-6-morpholin-4-yl-4,5,6,7-tetrahydro-benzothiazol-2-yl)-benzamide], the IC50 at ROCKII (1-543) [1] came out at 4 nM; on ROCKII (1-543) [2] it was 2.5 nM.

On to `C[C@@H](N)[C@H]1CC[C@H](C(=O)Nc2ccncc2)CC1` [Compound Y-27632, Y-27632], for which the “effect on blood pressure in control rats” value in experiment [3] (control rats) is listed as “only a minor effect”. Also, in experiment [3] (spontaneously hypertensive, renal hypertensive, deoxycortisone acetate salt hypertensive rats), the “blood pressure in three rat models of hypertension” value is on record as “significantly decrease blood pressure”. In addition, in experiment [4], the neointimal formation entry is “inhibited neointimal formation”. The “ventricular hypertrophy and function” value with Dahl salt-sensitive rats is “improve ventricular hypertrophy and function”.

With `O=S(=O)(c1cccc2cnccc12)N1CCCNCC1` [fasudil], in experiment [5], the coronary constrictive remodeling entry is given as “promote a regression of coronary constrictive remodeling” and the coronary stenosis result was “progressively reduce coronary stenosis”. Also, the “infarct size and neurologic deficit” value in the experiment with rat stroke model was “reduce both the infarct size and neurologic deficit”.
